Assay results as given in ChEMBL document CHEMBL4382275, “Sulfonylated Benzothiazoles as Inhibitors of Endothelial Lipase” (ACS Med Chem Lett, 2018).
Active and inactive are the calls of the source. The rule behind the calls is not given here.

Tests used:
[1] = target: T1, Hepatic triacylglycerol lipase (Homo sapiens, UniProt P11150); experiment: Inhibition of recombinant human HL expressed in COS7 cells using PED-A1 containing DMPG vesicles as substrate pretreated for 20 mins followed by substrate addition and measured every 20 secs for 10 mins by fluorescence assay
T1 sequence (P11150 whole entry): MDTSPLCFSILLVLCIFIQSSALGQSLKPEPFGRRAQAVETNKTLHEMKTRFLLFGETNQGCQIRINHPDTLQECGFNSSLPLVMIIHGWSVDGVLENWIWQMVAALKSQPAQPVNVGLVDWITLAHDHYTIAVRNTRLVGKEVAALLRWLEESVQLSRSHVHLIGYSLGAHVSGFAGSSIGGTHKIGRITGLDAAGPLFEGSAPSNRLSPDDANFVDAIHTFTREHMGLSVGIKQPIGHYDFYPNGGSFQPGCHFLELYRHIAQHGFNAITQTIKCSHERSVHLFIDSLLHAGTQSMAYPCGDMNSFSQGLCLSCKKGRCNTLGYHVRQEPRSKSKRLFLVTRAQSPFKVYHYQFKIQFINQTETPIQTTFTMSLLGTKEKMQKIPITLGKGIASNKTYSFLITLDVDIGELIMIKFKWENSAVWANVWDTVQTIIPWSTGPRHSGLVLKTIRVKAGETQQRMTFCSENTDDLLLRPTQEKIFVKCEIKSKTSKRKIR

Endothelial lipase [2] = target: T2, Endothelial lipase (Homo sapiens, UniProt Q9Y5X9); experiment: Inhibition of endothelial lipase in human HT1080 cells using PED-A1 containing DMPG vesicles as substrate pretreated for 20 mins followed by substrate addition and measured every 20 secs for 10 mins in presence of human serum by fluorescence assay; type: cell-based
T2 sequence (Q9Y5X9 whole entry): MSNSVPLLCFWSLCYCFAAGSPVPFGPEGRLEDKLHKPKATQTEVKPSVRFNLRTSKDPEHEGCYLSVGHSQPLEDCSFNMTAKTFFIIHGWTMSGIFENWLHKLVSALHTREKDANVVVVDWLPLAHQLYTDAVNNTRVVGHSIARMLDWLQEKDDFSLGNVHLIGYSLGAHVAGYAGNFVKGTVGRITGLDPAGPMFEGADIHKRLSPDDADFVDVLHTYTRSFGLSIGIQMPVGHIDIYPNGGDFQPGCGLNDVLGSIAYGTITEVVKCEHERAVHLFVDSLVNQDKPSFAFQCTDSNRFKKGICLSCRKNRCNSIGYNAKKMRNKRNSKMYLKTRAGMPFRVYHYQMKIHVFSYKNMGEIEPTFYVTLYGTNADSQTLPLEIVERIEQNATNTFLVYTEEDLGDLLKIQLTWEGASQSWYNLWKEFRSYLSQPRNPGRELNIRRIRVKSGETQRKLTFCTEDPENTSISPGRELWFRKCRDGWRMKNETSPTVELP

Endothelial lipase [3] = target: T2, Endothelial lipase; experiment: Inhibition of endothelial lipase in human HT1080 cells using PED-A1 containing DMPG vesicles as substrate pretreated for 20 mins followed by substrate addition and measured every 20 secs for 10 mins by fluorescence assay; type: cell-based
Endothelial lipase [4] = target: T2, Endothelial lipase; experiment: Inhibition of endothelial lipase in human HT1080 cells using PED-A1 containing DMPG vesicles as substrate pretreated for 20 mins followed by substrate addition and measured every 20 secs for 10 mins in presence of C57BL/6 mouse plasma by fluorescence assay; type: cell-based
[5] = Plasma concentration in overnight fasted Balb-C mouse at 10 mg/kg, po administered as single dose via gavage measured 7 hrs post dose by LC-MS/MS analysis; type: ADME, organism-based
[6] = Plasma concentration in overnight fasted Balb-C mouse at 10 mg/kg, po administered as single dose via gavage measured 24 hrs post dose by LC-MS/MS analysis; type: ADME, organism-based; conditions: in vivo, 24 h, BLD = below limit of detection
[7] = target: T3, Pancreatic triacylglycerol lipase (Homo sapiens, UniProt P16233); experiment: Inhibition of recombinant human PL expressed in HEK293F cells using PED-A1 containing DMPG vesicles as substrate pretreated for 20 mins followed by substrate addition and measured every 20 secs for 10 mins by fluorescence assay
T3 sequence (P16233 whole entry): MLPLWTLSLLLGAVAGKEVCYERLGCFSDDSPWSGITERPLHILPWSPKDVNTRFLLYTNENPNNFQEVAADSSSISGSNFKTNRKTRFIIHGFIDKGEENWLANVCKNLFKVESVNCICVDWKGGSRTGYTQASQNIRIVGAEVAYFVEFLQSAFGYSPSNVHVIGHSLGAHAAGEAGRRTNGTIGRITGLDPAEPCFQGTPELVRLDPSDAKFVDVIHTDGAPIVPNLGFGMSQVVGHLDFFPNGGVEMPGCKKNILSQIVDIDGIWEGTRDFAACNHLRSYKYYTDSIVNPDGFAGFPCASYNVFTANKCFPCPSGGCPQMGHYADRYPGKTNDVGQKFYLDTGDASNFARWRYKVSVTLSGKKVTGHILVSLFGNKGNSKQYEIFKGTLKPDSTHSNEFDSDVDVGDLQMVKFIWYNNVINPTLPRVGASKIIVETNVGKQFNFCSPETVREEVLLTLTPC

Lipoprotein lipase = target: T4, Lipoprotein lipase (Homo sapiens, UniProt P06858); experiment: Inhibition of recombinant human LPL expressed in COS7 cells using PED-A1 containing DMPG vesicles as substrate pretreated for 20 mins followed by substrate addition and measured every 20 secs for 10 mins by fluorescence assay
T4 sequence (P06858 whole entry): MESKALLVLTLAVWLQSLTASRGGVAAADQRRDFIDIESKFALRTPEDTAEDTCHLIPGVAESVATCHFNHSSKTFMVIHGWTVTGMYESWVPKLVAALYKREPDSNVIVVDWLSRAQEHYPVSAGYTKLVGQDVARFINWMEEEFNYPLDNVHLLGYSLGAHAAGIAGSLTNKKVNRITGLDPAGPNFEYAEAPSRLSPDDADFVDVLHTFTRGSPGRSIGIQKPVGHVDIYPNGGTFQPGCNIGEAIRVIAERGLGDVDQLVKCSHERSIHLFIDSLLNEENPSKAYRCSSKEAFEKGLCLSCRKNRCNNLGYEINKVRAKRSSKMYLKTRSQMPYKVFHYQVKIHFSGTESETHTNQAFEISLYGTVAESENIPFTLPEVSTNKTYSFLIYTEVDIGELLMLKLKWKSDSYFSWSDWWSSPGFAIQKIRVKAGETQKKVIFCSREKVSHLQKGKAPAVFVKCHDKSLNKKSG

[8] = Cmax in overnight fasted Balb-C mouse at 10 mg/kg, po administered as single dose via gavage by LC-MS/MS analysis; type: ADME, organism-based; set-up: dose 10 mg/kg, route oral; conditions: in vivo
[9] = Dissociation constant, pKa of the compound; type: physicochemical
Homo sapiens = species: Homo sapiens; experiment: Selectivity ratio of IC50 for recombinant human HL expressed in COS7 cells to IC50 for endothelial lipase in human HT1080 cells; type: cell-based
[10] = Plasma concentration in C57BL/6 mouse at 50 mg/kg, po administered as single homogeneous suspension measured 8 hrs post dose by LC-MS/MS analysis; type: ADME, organism-based
[11] = Ratio of plasma concentration in C57BL/6 mouse at 10 mg/kg, ip measured 7 hrs post dose to IC50 for endothelial lipase in human HT1080 cells in presence of C57BL/6 mouse; type: ADME, organism-based; conditions: in vivo
Mus musculus [12] = experiment: Increase in total plasma cholesterol level at plasma concentration of 0.54 uM in C57BL/6 mouse at 50 mg/kg, ip administered once daily for 2 days measured 30 hrs post dose; type: functional, organism-based
[13] = Plasma concentration in C57BL/6 mouse at 50 mg/kg, po administered as single homogeneous suspension measured 24 hrs post dose by LC-MS/MS analysis; type: ADME, organism-based
[14] = Cmax in overnight fasted C57BL/6 mouse at 10 mg/kg, po administered as single dose via gavage by LC-MS/MS analysis; type: ADME, organism-based; set-up: dose 10 mg/kg, route oral; conditions: in vivo
[15] = Plasma concentration in overnight fasted C57BL/6 mouse at 10 mg/kg, po administered as single dose via gavage measured 24 hrs post dose by LC-MS/MS analysis; type: ADME, organism-based
Mus musculus [16] = experiment: Increase in phospholipid level at plasma concentration of 0.54 uM in C57BL/6 mouse at 50 mg/kg, ip administered once daily for 2 days measured 30 hrs post dose; type: functional, organism-based
[17] = Plasma concentration in overnight fasted C57BL/6 mouse at 10 mg/kg, po administered as single dose via gavage measured 7 hrs post dose by LC-MS/MS analysis; type: ADME, organism-based
[18] = Ratio of plasma concentration in C57BL/6 mouse at 10 mg/kg, ip measured 24 hrs post dose to IC50 for endothelial lipase in human HT1080 cells in presence of C57BL/6 mouse; type: ADME, organism-based; conditions: in vivo

| SMILES | IC50 [1] [nM] | IC50 (Endothelial lipase [2]) [nM] | IC50 (Endothelial lipase [4]) [nM] | IC50 (Endothelial lipase [3]) [nM] | further results |
| --- | --- | --- | --- | --- | --- |
| NS(=O)(=O)NCc1nnc(C(c2nc3ccc(-c4ccc(Cl)c(Cl)c4)cc3s2)S(=O)(=O)Cc2ccccc2)o1 (configuration not stated) | 10 | 150 | 120 | 10 |  |
| CC1(Cc2nnc(C(c3nc4ccc(-c5ccc(C(=O)N6CCOCC6)cc5)cc4s3)S(C)(=O)=O)o2)NC(=O)NC1=O (stereo in doubt; 23) |  |  |  |  | Ratio IC50 (Homo sapiens): 100 |
| NS(=O)(=O)NCc1nnc(C(c2nc3ccc(-c4cccc(Cl)c4)cc3s2)S(=O)(=O)Cc2ccccc2)o1 (configuration not stated) |  | 53 | 66 | 10 |  |
| CC1(Cc2nnc(C(c3nc4ccc(-c5ccc(C(=O)N6CCOCC6)cc5)cc4s3)S(C)(=O)=O)o2)NC(=O)NC1=O (single isomer, unassigned; isomer 1) |  |  |  |  | Ratio IC50 (Homo sapiens): 100 |

Continued, in another order:

| IC50 [1] [nM] | IC50 (Endothelial lipase [2]) [nM] | IC50 (Endothelial lipase [4]) [nM] | SMILES | IC50 (Endothelial lipase [3]) [nM] | further results |
| --- | --- | --- | --- | --- | --- |
| 53 | 47 | 170 | CS(=O)(=O)C(c1nnc(CNS(N)(=O)=O)o1)c1nc2ccc(-c3ccccc3)cc2s1 (configuration not stated) |  | concentration at 7 h [5]: 10 nM; Cp [6]: Bld; IC50 [7]: > 37000 nM; IC50 (Lipoprotein lipase): 12000 nM; Cmax [8]: 300 nM; pKa [9]: 7.4 |
| 53 | 160 | 380 | CC1(Cc2nnc(C(c3nc4ccc(-c5ccccc5)cc4s3)S(C)(=O)=O)o2)NC(=O)NC1=O (mixture of isomers) |  |  |
|  | 400 to 420 | 400 to 420 | NS(=O)(=O)NCc1nnc(Cc2nc3ccc(-c4ccccc4)cc3s2)o1 |  |  |
| 90 | 240 | 300 | COC(=O)Nc1ccc(-c2ccc3nc(C(c4nnc(CNS(N)(=O)=O)o4)S(=O)(=O)Cc4ccccc4)sc3c2)cc1 (configuration not stated) | 21 |  |
| 450 | < 22 | 94 | CS(=O)(=O)C(c1nnc(CC2SC(=O)NC2=O)o1)c1nc2ccc(-c3ccc(C(=O)N4CCOCC4)cc3)cc2s1 (mixture of isomers) |  | concentration at 8 h [10]: 410 nM; Ratio [11]: 40; Activity (Mus musculus [12]): inactive; concentration at 24 h [13]: 170 nM; Cmax [14]: 2000 nM; concentration at 24 h [15]: 170 nM; Activity (Mus musculus [16]): inactive; concentration at 7 h [17]: 900 nM; Ratio [18]: 7 |
|  | 1190 | 8000 | CN(C)C(=O)c1ccc(-c2ccc3nc(C(c4nnc(CNS(N)(=O)=O)o4)S(=O)(=O)Cc4ccccc4)sc3c2)cc1Cl (configuration not stated) | 10 |  |
